Reference: PubChem BioAssay AID2060342 (Molecular Pharmacology Branch, DTP, NCI, 2025)

Test system: 171881-019-R-J1-PDC multicell spheroid viability
Assay: Anticancer human tumor 171881-019-R-J1-PDC patient-derived invasive breast carcinoma cell line growth inhibition [IpAb]
Conditions: for IC50: curve of first compound; for viability, T/C: stronger effect = lower value
Method in brief: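 Combinations with ipatasertib or abemaciclib were tested on tumour spheroids holding HUVEC (25%) and MSC (15%) alongside 60% malignant cells. Top concentration was at or near clinical Cmax (10 microM if undefined), descending in half-log steps.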

[1] = second compound 0.1 µM, first compound 0.00949 µM
[2] = second compound 0.1 µM, first compound 0.03 µM
[3] = second compound 0.1 µM, first compound 0.0949 µM
[4] = second compound 0.1 µM, first compound 0.3 µM
[5] = second compound 0.316 µM, first compound 0.00949 µM
[6] = second compound 0.316 µM, first compound 0.03 µM
[7] = second compound 0.316 µM, first compound 0.0949 µM
[8] = second compound 0.316 µM, first compound 0.3 µM
[9] = second compound 1 µM, first compound 0.00949 µM
[10] = second compound 1 µM, first compound 0.03 µM
[11] = second compound 1 µM, first compound 0.0949 µM
[12] = second compound 1 µM, first compound 0.3 µM
[13] = second compound 3.16 µM, first compound 0.00949 µM
[14] = second compound 3.16 µM, first compound 0.03 µM
[15] = second compound 3.16 µM, first compound 0.0949 µM
[16] = second compound 3.16 µM, first compound 0.3 µM
[17] = second compound 10 µM, first compound 0.00949 µM
[18] = second compound 10 µM, first compound 0.03 µM
[19] = second compound 10 µM, first compound 0.0949 µM
[20] = second compound 10 µM, first compound 0.3 µM
[21] = second compound 0.1 µM, first compound 0.0316 µM
[22] = second compound 0.1 µM, first compound 0.1 µM
[23] = second compound 0.1 µM, first compound 0.316 µM
[24] = second compound 0.1 µM, first compound 1 µM
[25] = second compound 0.316 µM, first compound 0.0316 µM
[26] = second compound 0.316 µM, first compound 0.1 µM
[27] = second compound 0.316 µM, first compound 0.316 µM
[28] = second compound 0.316 µM, first compound 1 µM
[29] = second compound 1 µM, first compound 0.0316 µM
[30] = second compound 1 µM, first compound 0.1 µM
[31] = second compound 1 µM, first compound 0.316 µM
[32] = second compound 1 µM, first compound 1 µM
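Also: spheroids exposed to the agents for seven days before readout.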

Structure (SMILES): CC(C)(C)c1cnc(CSc2cnc(NC(=O)C3CCNCC3)s2)o1 + CC(C)NCC(C(=O)N1CCN(c2ncnc3c2C(C)CC3O)CC1)c1ccc(Cl)cc1
- IC50 (second compound 0.1 µM): 0.187 µM
- IC50 (second compound 0.316 µM): 0.156 µM
- IC50 (second compound 1 µM): < 0.00949 µM
- IC50 (second compound 3.16 µM): < 0.00949 µM
- IC50 (second compound 10 µM): < 0.00949 µM
- viability, T/C [1]: 104%
- viability, T/C [2]: 120%
- viability, T/C [3]: 133%
- viability, T/C [4]: 2.16%
- viability, T/C (second compound 0.1 µM, first compound 0.949 µM): 0.19%
- viability, T/C (second compound 0.1 µM, first compound 3 µM): 0.6%
- viability, T/C [5]: 82.3%
- viability, T/C [6]: 91%
- viability, T/C [7]: 89.2%
- viability, T/C [8]: 0.99%
- viability, T/C (second compound 0.316 µM, first compound 0.949 µM): 0.25%
- viability, T/C (second compound 0.316 µM, first compound 3 µM): 0.63%
- viability, T/C [9]: 24.9%
- viability, T/C [10]: 34.3%
- viability, T/C [11]: 38.6%
- viability, T/C [12]: 0.53%
- viability, T/C (second compound 1 µM, first compound 0.949 µM): 0.49%
- viability, T/C (second compound 1 µM, first compound 3 µM): 0.25%
- viability, T/C [13]: 11.1%
- viability, T/C [14]: 13.2%
- viability, T/C [15]: 19.1%
- viability, T/C [16]: 0.68%
- viability, T/C (second compound 3.16 µM, first compound 0.949 µM): 0.24%
- viability, T/C (second compound 3.16 µM, first compound 3 µM): 0.28%
- viability, T/C [17]: 5.77%
- viability, T/C [18]: 6.05%
- viability, T/C [19]: 9.31%
- viability, T/C [20]: 0.64%
- viability, T/C (second compound 10 µM, first compound 0.949 µM): 0.26%
- viability, T/C (second compound 10 µM, first compound 3 µM): 0.31%

Structure (SMILES): CC1(C)CCC(CN2CCN(c3ccc(C(=O)NS(=O)(=O)c4ccc(NCC5CCOCC5)c([N+](=O)[O-])c4)c(Oc4cnc5[nH]ccc5c4)c3)CC2)=C(c2ccc(Cl)cc2)C1 + CC(C)NCC(C(=O)N1CCN(c2ncnc3c2C(C)CC3O)CC1)c1ccc(Cl)cc1
- IC50 (second compound 0.1 µM): 5.67 µM
- IC50 (second compound 0.316 µM): 2.84 µM
- IC50 (second compound 1 µM): < 0.0316 µM
- IC50 (second compound 3.16 µM): < 0.0316 µM
- IC50 (second compound 10 µM): < 0.0316 µM
- viability, T/C [21]: 136%
- viability, T/C [22]: 114%
- viability, T/C [23]: 120%
- viability, T/C [24]: 107%
- viability, T/C (second compound 0.1 µM, first compound 3.16 µM): 84.3%
- viability, T/C (second compound 0.1 µM, first compound 10 µM): 18.7%
- viability, T/C [25]: 103%
- viability, T/C [26]: 96.8%
- viability, T/C [27]: 83.1%
- viability, T/C [28]: 71.3%
- viability, T/C (second compound 0.316 µM, first compound 3.16 µM): 48.7%
- viability, T/C (second compound 0.316 µM, first compound 10 µM): 14.8%
- viability, T/C [29]: 37.2%
- viability, T/C [30]: 31.9%
- viability, T/C [31]: 34.8%
- viability, T/C [32]: 32.3%
- viability, T/C (second compound 1 µM, first compound 3.16 µM): 30.3%
- viability, T/C (second compound 1 µM, first compound 10 µM): 12.3%
- viability, T/C (second compound 3.16 µM, first compound 0.0316 µM): 10.9%
- viability, T/C (second compound 3.16 µM, first compound 0.1 µM): 11.4%
- viability, T/C (second compound 3.16 µM, first compound 0.316 µM): 11.3%
- viability, T/C (second compound 3.16 µM, first compound 1 µM): 11.5%
- viability, T/C (second compound 3.16 µM, first compound 3.16 µM): 12.6%
- viability, T/C (second compound 3.16 µM, first compound 10 µM): 5.33%
- viability, T/C (second compound 10 µM, first compound 0.0316 µM): 8.52%
- viability, T/C (second compound 10 µM, first compound 0.1 µM): 5.8%
- viability, T/C (second compound 10 µM, first compound 0.316 µM): 5.75%
- viability, T/C (second compound 10 µM, first compound 1 µM): 6.5%
- viability, T/C (second compound 10 µM, first compound 3.16 µM): 5.63%
- viability, T/C (second compound 10 µM, first compound 10 µM): 2.85%

Structure (SMILES): COc1c(OCCCN2CCOCC2)ccc2c3n(c(=NC(=O)c4cnc(N)nc4)nc12)CCN3 + CCN1CCN(Cc2ccc(Nc3ncc(F)c(-c4cc(F)c5nc(C)n(C(C)C)c5c4)n3)nc2)CC1
- IC50 (second compound 0.01 µM): 0.0195 µM
- IC50 (second compound 0.0316 µM): 0.0211 µM
- IC50 (second compound 0.1 µM): 0.0203 µM
- IC50 (second compound 0.316 µM): 0.0235 µM
- IC50 (second compound 1 µM): 0.0315 µM
- viability, T/C (second compound 0.01 µM, first compound 0.00316 µM): 115%
- viability, T/C (second compound 0.01 µM, first compound 0.01 µM): 76.6%
- viability, T/C (second compound 0.01 µM, first compound 0.0316 µM): 31.9%
- viability, T/C (second compound 0.01 µM, first compound 0.1 µM): 5.33%
- viability, T/C (second compound 0.01 µM, first compound 0.316 µM): 1%
- viability, T/C (second compound 0.01 µM, first compound 1 µM): 1.29%
- viability, T/C (second compound 0.0316 µM, first compound 0.00316 µM): 113%
- viability, T/C (second compound 0.0316 µM, first compound 0.01 µM): 76.2%
- viability, T/C (second compound 0.0316 µM, first compound 0.0316 µM): 38.7%
- viability, T/C (second compound 0.0316 µM, first compound 0.1 µM): 4.99%
- viability, T/C (second compound 0.0316 µM, first compound 0.316 µM): 1%
- viability, T/C (second compound 0.0316 µM, first compound 1 µM): 1.5%
- viability, T/C (second compound 0.1 µM, first compound 0.00316 µM): 115%
- viability, T/C (second compound 0.1 µM, first compound 0.01 µM): 80.2%
- viability, T/C [21]: 31.9%
- viability, T/C [22]: 5.31%
- viability, T/C [23]: 0.99%
- viability, T/C [24]: 1.13%
- viability, T/C (second compound 0.316 µM, first compound 0.00316 µM): 110%
- viability, T/C (second compound 0.316 µM, first compound 0.01 µM): 76.1%
- viability, T/C [25]: 45.3%
- viability, T/C [26]: 7.2%
- viability, T/C [27]: 1.95%
- viability, T/C [28]: 1.08%
- viability, T/C (second compound 1 µM, first compound 0.00316 µM): 121%
- viability, T/C (second compound 1 µM, first compound 0.01 µM): 82.6%
- viability, T/C [29]: 56.6%
- viability, T/C [30]: 17.2%
- viability, T/C [31]: 4.08%
- viability, T/C [32]: 2%

Structure (SMILES): CC(=O)c1c(C)c2cnc(Nc3ccc(N4CCNCC4)cn3)nc2n(C2CCCC2)c1=O + CC(C)NCC(C(=O)N1CCN(c2ncnc3c2C(C)CC3O)CC1)c1ccc(Cl)cc1
- IC50 (second compound 0.1 µM): > 0.3 µM
- IC50 (second compound 0.316 µM): > 0.3 µM
- IC50 (second compound 1 µM): < 0.000949 µM
- IC50 (second compound 3.16 µM): < 0.000949 µM
- IC50 (second compound 10 µM): < 0.000949 µM
- viability, T/C (second compound 0.1 µM, first compound 0.000949 µM): 98.8%
- viability, T/C (second compound 0.1 µM, first compound 0.003 µM): 112%
- viability, T/C [1]: 94%
- viability, T/C [2]: 106%
- viability, T/C [3]: 103%
- viability, T/C [4]: 93.5%
- viability, T/C (second compound 0.316 µM, first compound 0.000949 µM): 83.3%
- viability, T/C (second compound 0.316 µM, first compound 0.003 µM): 84.8%
- viability, T/C [5]: 77.4%
- viability, T/C [6]: 76.1%
- viability, T/C [7]: 64.6%
- viability, T/C [8]: 59.6%
- viability, T/C (second compound 1 µM, first compound 0.000949 µM): 30.8%
- viability, T/C (second compound 1 µM, first compound 0.003 µM): 26.1%
- viability, T/C [9]: 27.8%
- viability, T/C [10]: 25.9%
- viability, T/C [11]: 26.1%
- viability, T/C [12]: 23.9%
- viability, T/C (second compound 3.16 µM, first compound 0.000949 µM): 12.4%
- viability, T/C (second compound 3.16 µM, first compound 0.003 µM): 11.8%
- viability, T/C [13]: 12.2%
- viability, T/C [14]: 10.2%
- viability, T/C [15]: 9.89%
- viability, T/C [16]: 9.65%
- viability, T/C (second compound 10 µM, first compound 0.000949 µM): 6.66%
- viability, T/C (second compound 10 µM, first compound 0.003 µM): 6.56%
- viability, T/C [17]: 6.69%
- viability, T/C [18]: 5.87%
- viability, T/C [19]: 5.79%
- viability, T/C [20]: 5.34%
